Assay results taken from PubChem BioAssay (NCI).
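These data come from cells grown in 96-well plates and exposed to compound for 48 hours at five concentrations. The concentration for 50% growth inhibition is given as GI50. TGI: total growth inhibition.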

Key:
Experiment in all cases: inhibition of tumour cell growth, NCI panel, 48 h
A549 NSCLC = tested on: A549 NSCLC
KM12 colon = tested on: KM12 colon
SF-268 CNS = tested on: SF-268 CNS
BT-549 breast = tested on: BT-549 breast
RPMI-8226 leukemia = tested on: RPMI-8226 leukemia
SK-MEL-2 melanoma = tested on: SK-MEL-2 melanoma
HOP-92 NSCLC = tested on: HOP-92 NSCLC
U251 CNS = tested on: U251 CNS
PC-3 prostate = tested on: PC-3 prostate
COLO 205 colon = tested on: COLO 205 colon

## Cc1ccccc1NC(=O)c1cc2ccccc2cc1O
A549 NSCLC
  GI50: 3.48 µM
  TGI: > 100 µM
KM12 colon
  GI50: 3.36 µM
  TGI: > 100 µM
SF-268 CNS
  GI50: 3.68 µM
  TGI: > 100 µM
BT-549 breast
  GI50: 3.46 µM
  TGI: 8.43 µM
RPMI-8226 leukemia
  GI50: 2.83 µM
  TGI: 8.9 µM
SK-MEL-2 melanoma
  GI50: 3.33 µM
  TGI: 8.05 µM
HOP-92 NSCLC
  GI50: 2.39 µM
  TGI: 5.94 µM
U251 CNS
  GI50: 3.56 µM
  TGI: > 100 µM
PC-3 prostate
  GI50: 2.7 µM
  TGI: 8.81 µM
COLO 205 colon
  GI50: 13.8 µM
  TGI: 28.6 µM

## COc1ccc2c(c1)C=C1CSCC3=Cc4cc(OC)ccc4OC13O2
A549 NSCLC
  GI50: 0.492 µM
  TGI: > 100 µM
KM12 colon
  GI50: 0.513 µM
  TGI: > 100 µM
SF-268 CNS
  GI50: 2.86 µM
  TGI: > 100 µM
BT-549 breast
  GI50: 0.816 µM
  TGI: > 100 µM
RPMI-8226 leukemia
  GI50: 0.368 µM
  TGI: > 34.4 µM
SK-MEL-2 melanoma
  GI50: 0.625 µM
  TGI: > 100 µM
HOP-92 NSCLC
  GI50: 4.6 µM
  TGI: > 100 µM
U251 CNS
  GI50: 0.427 µM
  TGI: > 100 µM
PC-3 prostate
  GI50: 0.36 µM
  TGI: > 100 µM
COLO 205 colon
  GI50: 0.292 µM
  TGI: 0.917 µM

## CC(C)=CCc1cc(C2COc3cc4c(c(O)c3C2=O)C=CC(C)(C)O4)c(O)cc1O (stereo not given)
A549 NSCLC
  TGI: 27.9 µM
KM12 colon
  TGI: 32.7 µM
SF-268 CNS
  TGI: 30.5 µM
BT-549 breast
  TGI: 33.3 µM
RPMI-8226 leukemia
  TGI: 24.4 µM
SK-MEL-2 melanoma
  TGI: 31.7 µM
HOP-92 NSCLC
  TGI: 33.1 µM
U251 CNS
  TGI: 35.7 µM
PC-3 prostate
  TGI: 24.9 µM
COLO 205 colon
  TGI: 49.9 µM

## c1ccc(/C(=N\Nc2ccc3ccccc3n2)c2ccccn2)cc1
A549 NSCLC
  GI50: 1.11 µM
  TGI: > 36.2 µM
KM12 colon
  GI50: 0.989 µM
  TGI: 13.5 µM
SF-268 CNS
  GI50: 0.743 µM
  TGI: 9.87 µM
BT-549 breast
  GI50: 0.116 µM
  TGI: 1.72 µM
RPMI-8226 leukemia
  GI50: 0.503 µM
  TGI: 3.68 µM
SK-MEL-2 melanoma
  GI50: 0.604 µM
  TGI: 7.4 µM
HOP-92 NSCLC
  GI50: 0.551 µM
  TGI: 19.8 µM
U251 CNS
  GI50: 0.592 µM
  TGI: 13 µM
PC-3 prostate
  GI50: 1.25 µM
  TGI: 55.3 µM
COLO 205 colon
  GI50: 0.407 µM
  TGI: 5.08 µM
